Assay results published in the supplement of paper PMC10307832.

Key:
Experiment in all cases: relative viability (nuclei count vs DMSO), 5 days (fraction); higher = more cells survive
[1] = compound: O=C(CCCCCCNC(=O)c1cnc(N(c2ccccc2)c2ccccc2)nc1)NO [Ricolinostat] + N=C(N)NC(=N)NCCc1ccccc1 [Phenformin] (partner 250 µM)
In short: (§1)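 Lung cancer cell lines were seeded in 1536-well plates and dosed by pin tool the next day, with either a single drug or a fixed anchor-drug dose combined with five library-drug doses (not always all listed) spaced in √10 steps. Five days later, one step fixed the cells and stained their nuclei (final 0.05% Triton X-100, 1% formaldehyde, 1 ug/ml Hoechst), and nuclei were counted on 4× images. Relative viability is the nuclei count in treated wells divided by the count in vehicle wells, and each value is the median of duplicate plates.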

[2] = compound: C1=CC=C(C(=C1)C2=CC=C(C=C2)C3=CSC4=C3C(=C(C(=O)N4)C#N)O)O + Cc1cc(Nc2cc(N3CCN(C)CC3)nc(Sc3ccc(NC(=O)C4CC4)cc3)n2)n[nH]1 [Tozasertib] (partner 0.1 µM)
In short: as §1

[3] = compound: C1=CC=C(C(=C1)C2=CC=C(C=C2)C3=CSC4=C3C(=C(C(=O)N4)C#N)O)O + O=C(CCCCCCC(=O)Nc1ccccc1)NO [Vorinostat] (partner 1 µM)
In short: as §1

[4] = compound: CC1=CN2C(=O)C=C(N=C2C(=C1)C(C)NC3=CC=CC=C3)N4CCOCC4 [TGX 221] + C[C@]1(O)C[C@@H](c2nc(-c3ccc4ccc(-c5ccccc5)nc4c3)c3c(N)nccn32)C1 [Linsitinib] (partner 1 µM)
In short: as §1

| Cell Line | relative viability ([1]; first compound 0.08 µM) | relative viability ([1]; first compound 0.253 µM) | relative viability ([1]; first compound 0.8 µM) | relative viability ([1]; first compound 2.53 µM) | relative viability ([2]; first compound 0.08 µM) | relative viability ([2]; first compound 0.253 µM) | relative viability ([2]; first compound 0.8 µM) | relative viability ([2]; first compound 2.53 µM) | relative viability ([2]; first compound 8 µM) | relative viability ([3]; first compound 0.08 µM) | relative viability ([3]; first compound 0.253 µM) | relative viability ([3]; first compound 0.8 µM) | relative viability ([3]; first compound 2.53 µM) | relative viability ([3]; first compound 8 µM) | relative viability ([4]; first compound 0.08 µM) | relative viability ([4]; first compound 0.253 µM) | relative viability ([4]; first compound 0.8 µM) | relative viability ([4]; first compound 2.53 µM) | relative viability ([4]; first compound 8 µM) |
| --- | --- | --- | --- | --- | --- | --- | --- | --- | --- | --- | --- | --- | --- | --- | --- | --- | --- | --- | --- |
| NCI-H358 | 0.265 | 0.362 | 0.424 | 0.432 | 0.107 | 0.112 | 0.104 | 0.0911 | 0.114 | 0.641 | 0.647 | 0.666 | 0.839 | 0.484 | 0.757 | 0.684 | 0.732 | 0.65 | 0.588 |
| NCI-H1944 | 0.181 | 0.18 | 0.174 | 0.151 | 0.269 | 0.281 | 0.269 | 0.251 | 0.228 | 0.682 | 0.637 | 0.571 | 0.479 | 0.478 | 1.07 | 1.03 | 1.04 | 0.921 | 0.669 |
| 201T | 0.41 | 0.449 | 0.452 | 0.467 | 0.743 | 1.03 | 1.01 | 1.05 | 0.926 | 0.874 | 0.952 | 0.811 | 1 | 0.902 |  | 0.957 | 0.995 | 0.909 | 0.824 |
| NCI-H647 | 0.397 | 0.512 | 0.563 | 0.275 | 0.2 | 0.608 | 0.366 | 0.314 | 0.246 |  | 0.947 | 0.58 | 0.637 | 0.461 | 0.915 | 0.948 | 1 | 0.749 | 0.611 |
| NCI-H441 |  | 0.956 | 0.889 | 0.643 | 0.801 | 0.855 | 0.815 | 0.61 | 0.768 | 0.551 | 0.812 | 0.858 | 0.818 | 0.742 | 0.623 | 0.644 | 0.485 | 0.571 | 0.548 |
| PC-3 [JPC-3] |  | 0.472 | 0.488 | 0.475 | 0.606 | 0.401 | 0.928 | 0.876 | 0.716 | 0.809 | 0.909 | 0.758 | 0.658 | 0.662 | 0.963 | 0.973 | 0.997 | 0.922 | 0.918 |
| NCI-H2126 |  | 0.533 | 0.521 | 0.499 | 0.687 | 0.956 | 0.893 | 0.923 | 0.809 | 0.846 | 0.787 | 0.803 | 0.832 | 0.732 | 0.632 | 0.604 | 0.579 | 0.576 | 0.593 |
| HCC-15 | 0.411 | 0.509 | 0.486 | 0.496 | 0.474 | 0.579 | 0.371 | 0.554 | 0.371 | 0.861 | 0.954 | 0.869 | 0.905 | 0.725 | 0.893 | 0.86 | 0.878 | 0.845 | 0.827 |
| NCI-H2085 |  | 0.705 | 0.66 | 0.58 | 0.8 | 0.801 | 0.874 | 0.749 | 0.74 | 0.726 | 0.893 | 0.764 | 0.784 | 0.714 | 0.947 | 0.774 | 0.673 | 0.309 | 0.408 |
